The source made the active and inactive calls.
Assays:
[1] = Vero cell cytotoxicity, dose response, cytotoxicity control for Vif-APOBEC3G degradation inhibitor project, Vero cells (AID 1117358); assay type: functional; conditions: Human immunodeficiency virus 1, Vero
[2] = test system: HEK293; test: NOD1 signaling inhibitors, primary screen, cell-based, luminescence, uHTS (AID 1578); assay type: functional; conditions: Homo sapiens
[3] = test system: BJ; test: cytotoxicity toward BJ-TERT fibroblasts, dose response, cell-based, RAS-independent, luminescence (AID 1933); assay type: functional; conditions: Homo sapiens
[4] = target: Luciferin 4-monooxygenase (Photinus pyralis, UniProt P08659); test: Counter Screen for Luciferase-based Assay Positives. [Related pubchem assays: 620, 618, 411 ]
Luciferin 4-monooxygenase, sequence (P08659 whole entry): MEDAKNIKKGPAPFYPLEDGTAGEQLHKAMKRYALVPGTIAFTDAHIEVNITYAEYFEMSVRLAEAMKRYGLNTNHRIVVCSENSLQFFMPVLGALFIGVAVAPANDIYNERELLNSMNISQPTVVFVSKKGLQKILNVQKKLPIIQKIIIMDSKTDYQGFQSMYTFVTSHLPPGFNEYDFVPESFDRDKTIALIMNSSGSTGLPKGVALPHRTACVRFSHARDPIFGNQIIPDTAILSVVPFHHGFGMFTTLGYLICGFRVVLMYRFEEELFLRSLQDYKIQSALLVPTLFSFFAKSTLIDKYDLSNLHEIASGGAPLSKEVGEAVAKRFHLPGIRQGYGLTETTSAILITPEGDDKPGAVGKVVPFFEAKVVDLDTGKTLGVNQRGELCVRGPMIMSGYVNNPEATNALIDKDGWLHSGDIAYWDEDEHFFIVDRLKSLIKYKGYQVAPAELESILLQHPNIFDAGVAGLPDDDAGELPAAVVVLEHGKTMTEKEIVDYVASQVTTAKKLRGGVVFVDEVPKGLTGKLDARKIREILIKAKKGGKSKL

[5] = test system: HEK293; test: cells; assay type: functional, cell-based; conditions: Homo sapiens
[6] = test system: BJ; test: cells; assay type: functional, cell-based; conditions: Homo sapiens
[7] = test system: HEK293; test: cells; assay type: functional, cell-based; conditions: Homo sapiens; remark: listed apart in the source
[8] = target: T1, E3 ubiquitin-protein ligase XIAP (Homo sapiens, UniProt P98170); test: Counter Screen using XIAP-Bir3 for Chemical Antagonists of Bir1/2 domains of IAP-family anti-apoptotic proteins. [Related pubchem assays (depositor defined):AID1018, AID1449, AID1514, AID1638, AID1749, AID1750, AID488957, AID488963]
T1 sequence (P98170 whole entry): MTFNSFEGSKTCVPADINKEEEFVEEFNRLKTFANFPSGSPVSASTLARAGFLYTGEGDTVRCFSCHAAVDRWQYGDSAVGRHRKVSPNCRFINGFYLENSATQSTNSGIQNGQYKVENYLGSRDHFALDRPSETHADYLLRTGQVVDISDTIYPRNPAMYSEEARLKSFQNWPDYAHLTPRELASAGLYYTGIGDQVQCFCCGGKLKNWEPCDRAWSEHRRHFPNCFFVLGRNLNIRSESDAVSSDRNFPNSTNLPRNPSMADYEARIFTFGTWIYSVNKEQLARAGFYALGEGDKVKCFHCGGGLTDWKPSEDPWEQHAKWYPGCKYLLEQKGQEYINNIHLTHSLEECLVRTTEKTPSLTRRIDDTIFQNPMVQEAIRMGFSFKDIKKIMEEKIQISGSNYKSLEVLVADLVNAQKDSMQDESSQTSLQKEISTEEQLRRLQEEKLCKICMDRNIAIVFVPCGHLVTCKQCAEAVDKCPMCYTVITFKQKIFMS

[9] = target: T1, E3 ubiquitin-protein ligase XIAP; test: XIAP antagonists, biochemical, IAP family, fluorescence polarization (AID 1018); assay type: functional
[10] = test system: HEK293; test: NOD2 signaling inhibitors in MDP-stimulated cells, cell-based, uHTS, luminescence (AID 2001); assay type: functional; conditions: Homo sapiens
[11] = microbe, parasite or virus in culture; assay type: functional; conditions: Mycobacterium tuberculosis
[12] = test system: HT-1080; test: cytotoxicity in HT1080 fibrosarcoma cells, cell-based, fluorescence readout (AID 620); assay type: functional; conditions: Homo sapiens
[13] = test system: BJ; test: cytotoxicity toward BJ-TERT-LT-ST fibroblasts, dose response, cell-based, RAS-independent, luminescence (AID 1935); assay type: functional; conditions: Homo sapiens;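 note: BJ fibroblasts immortalized with TERT plus LT and ST oncogenes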
[14] = cytotoxicity toward DRD oncogenic fibroblasts, dose response, cell-based, non-viral oncogenic, luminescence (AID 1934); assay type: functional; conditions: Homo sapiens
[15] = target: T2, Replicative DNA helicase DnaB (Mycobacterium tuberculosis, UniProt P9WMR3); test: DnaB intein splicing inhibitors, dose response, biochemical, cell-free fluorescence (AID 449749); assay type: functional
T2 sequence (P9WMR3 whole entry): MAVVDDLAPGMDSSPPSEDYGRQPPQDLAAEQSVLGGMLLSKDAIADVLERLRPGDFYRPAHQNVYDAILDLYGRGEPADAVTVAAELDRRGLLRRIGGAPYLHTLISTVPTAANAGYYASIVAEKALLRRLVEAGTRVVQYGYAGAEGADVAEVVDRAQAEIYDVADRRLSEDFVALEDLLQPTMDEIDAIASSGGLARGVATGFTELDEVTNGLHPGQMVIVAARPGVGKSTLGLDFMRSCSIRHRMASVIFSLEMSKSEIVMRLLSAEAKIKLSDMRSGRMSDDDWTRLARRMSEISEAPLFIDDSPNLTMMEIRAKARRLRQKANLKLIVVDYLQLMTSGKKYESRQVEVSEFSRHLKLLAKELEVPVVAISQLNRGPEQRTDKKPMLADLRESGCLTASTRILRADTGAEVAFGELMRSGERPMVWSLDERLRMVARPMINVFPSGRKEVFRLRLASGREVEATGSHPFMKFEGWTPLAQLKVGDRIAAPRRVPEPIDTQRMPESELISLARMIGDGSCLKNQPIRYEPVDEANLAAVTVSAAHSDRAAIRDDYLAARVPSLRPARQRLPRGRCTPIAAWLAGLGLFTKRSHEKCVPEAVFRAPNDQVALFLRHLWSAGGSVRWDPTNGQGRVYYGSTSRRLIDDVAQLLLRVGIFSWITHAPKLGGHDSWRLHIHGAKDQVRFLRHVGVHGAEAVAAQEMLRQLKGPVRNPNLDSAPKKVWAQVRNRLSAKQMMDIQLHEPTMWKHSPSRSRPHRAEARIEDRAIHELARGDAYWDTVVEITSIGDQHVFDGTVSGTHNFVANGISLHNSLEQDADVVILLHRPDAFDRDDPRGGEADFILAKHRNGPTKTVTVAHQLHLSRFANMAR

[16] = test system: BJ; test: cytotoxicity toward Ras-transformed BJeLR fibroblasts, dose response, cell-based, alamar blue fluorescence, cherrypicked samples (AID 2631); assay type: functional; conditions: Homo sapiens;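 note: confirmatory dose-response assay in RAS-dependent BJ fibroblasts engineered with TERT, LT and ST, with cytotoxicity read by fluorescence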
[17] = target: T3, Protein RecA (Mycobacterium tuberculosis, UniProt P9WHJ3); test: Fluorescence Cell-Free Homogeneous Dose Retest to Identify Inhibitors of RecA-Intein Splicing Activity. [Related pubchem assays (depositor defined):AID2097, AID2223, AID489010, AID492950]; assay type: functional
T3 sequence (P9WHJ3 whole entry): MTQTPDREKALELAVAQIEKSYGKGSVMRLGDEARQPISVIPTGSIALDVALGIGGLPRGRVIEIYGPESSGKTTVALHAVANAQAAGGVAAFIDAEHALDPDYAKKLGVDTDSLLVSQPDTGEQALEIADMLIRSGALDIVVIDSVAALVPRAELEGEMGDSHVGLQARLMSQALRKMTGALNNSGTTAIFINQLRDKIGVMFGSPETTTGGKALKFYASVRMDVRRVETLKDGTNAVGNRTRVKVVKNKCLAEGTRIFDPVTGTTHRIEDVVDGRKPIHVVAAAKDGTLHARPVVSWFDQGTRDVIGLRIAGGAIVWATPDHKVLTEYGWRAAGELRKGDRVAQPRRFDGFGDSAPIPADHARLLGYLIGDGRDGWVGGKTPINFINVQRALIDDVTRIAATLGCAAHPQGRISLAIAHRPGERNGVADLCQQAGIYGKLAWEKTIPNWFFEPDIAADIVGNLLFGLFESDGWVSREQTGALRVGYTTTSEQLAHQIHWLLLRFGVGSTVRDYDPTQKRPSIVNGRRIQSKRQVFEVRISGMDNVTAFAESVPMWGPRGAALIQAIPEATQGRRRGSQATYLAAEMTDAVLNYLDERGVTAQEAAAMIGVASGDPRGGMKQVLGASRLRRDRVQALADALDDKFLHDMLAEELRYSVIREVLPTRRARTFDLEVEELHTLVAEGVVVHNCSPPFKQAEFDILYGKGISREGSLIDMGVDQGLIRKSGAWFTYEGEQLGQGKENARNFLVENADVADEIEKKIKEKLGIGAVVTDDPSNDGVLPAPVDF

[18] = inhibitors of PGC1a acetylation in cells, dose response, cell-based, cherry-picked samples (AID 720514); assay type: functional;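 note: potency may reflect raised or lowered acetylation signal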
[19] = target: T4, Leucine aminopeptidase (Plasmodium falciparum 3D7, UniProt Q8IL11); test: P. falciparum M17LAP inhibitors, primary screen, biochemical, fluorogenic H-Leu-NHMec substrate, 1536-well (AID 1619); assay type: functional
T4 sequence (Q8IL11 whole entry): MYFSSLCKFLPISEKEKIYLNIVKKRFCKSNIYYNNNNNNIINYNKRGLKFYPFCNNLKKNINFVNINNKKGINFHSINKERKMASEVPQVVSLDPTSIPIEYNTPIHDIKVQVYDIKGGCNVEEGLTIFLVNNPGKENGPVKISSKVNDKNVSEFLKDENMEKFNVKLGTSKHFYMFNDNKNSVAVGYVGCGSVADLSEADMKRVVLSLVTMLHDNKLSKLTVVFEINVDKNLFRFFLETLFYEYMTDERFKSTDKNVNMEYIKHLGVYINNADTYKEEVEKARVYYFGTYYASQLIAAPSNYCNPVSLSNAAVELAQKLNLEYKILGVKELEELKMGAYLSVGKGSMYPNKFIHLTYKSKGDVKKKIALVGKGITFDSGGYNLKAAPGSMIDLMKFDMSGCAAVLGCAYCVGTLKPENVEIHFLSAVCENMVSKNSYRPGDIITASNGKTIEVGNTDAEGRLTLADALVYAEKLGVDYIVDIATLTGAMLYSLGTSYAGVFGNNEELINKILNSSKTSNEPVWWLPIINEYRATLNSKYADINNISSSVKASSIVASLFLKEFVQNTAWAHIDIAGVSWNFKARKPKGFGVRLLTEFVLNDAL

[20] = target: Bifunctional protein GlmU (Mycobacterium tuberculosis, UniProt P9WMN3); test: Inhibitors of Mycobacterial Glucosamine-1-phosphate acetyl transferase (GlmU). Secondary screen.; set-up: species or system Mycobacterium tuberculosis H37Rv
Bifunctional protein GlmU, sequence (P9WMN3 whole entry, the tested form may be a part): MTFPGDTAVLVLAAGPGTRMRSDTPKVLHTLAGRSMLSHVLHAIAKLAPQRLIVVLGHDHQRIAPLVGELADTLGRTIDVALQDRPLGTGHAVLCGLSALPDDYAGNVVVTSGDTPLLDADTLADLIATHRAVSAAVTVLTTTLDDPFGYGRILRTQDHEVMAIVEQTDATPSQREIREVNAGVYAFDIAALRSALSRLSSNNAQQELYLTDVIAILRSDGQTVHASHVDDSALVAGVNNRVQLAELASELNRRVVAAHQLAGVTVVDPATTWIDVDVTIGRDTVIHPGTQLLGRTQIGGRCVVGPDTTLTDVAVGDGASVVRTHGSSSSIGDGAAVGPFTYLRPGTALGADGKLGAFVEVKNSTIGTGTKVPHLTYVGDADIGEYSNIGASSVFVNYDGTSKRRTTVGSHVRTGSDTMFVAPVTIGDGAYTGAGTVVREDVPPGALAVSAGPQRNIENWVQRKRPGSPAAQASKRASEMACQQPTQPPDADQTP

[21] = inhibitors of HIV Env-driven cell fusion, dose response, cherry-pick (AID 652057); assay type: functional, cell-based
[22] = ZM109 Env clade C HIV-1 fusion inhibitors, dose response, HeLa effector, CEM target cells, luciferase, cherry-pick (AID 652058); assay type: functional, cell-based
[23] = inhibitors of clade B AD8 Env fusion, dose response, cell-based, cherry-pick (AID 652062); assay type: functional;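 note: luciferase signal from cell-cell fusion driven by HIV-1 clade B AD8 Env; potency is for inhibitors of fusion seen as a drop in luminescence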
[24] = P. falciparum Dd2 growth inhibitors, dose response, SYBR Green, cherry-picked samples (AID 1159567); assay type: functional, cell-based
[25] = HepG2 cell cytotoxicity, dose response, cytotoxicity control, cherry-picked samples (AID 1159577); assay type: functional, cell-based

S=C(Nc1ccc(Oc2ccccc2)cc1)NC1CCCCC1
active: CC50 [1] 30.1 µM

O=S(=O)(c1ccc(Cl)cc1)c1snnc1-c1ccccc1
> 100 µM (not active): IC50 [9]
inconclusive: EC50 [13] 3.25 µM
inactive: IC50 [7] > 20 µM | IC50 [8] > 100 µM | IC50 [10] 6.92 µM
active: EC50 [2] 10.7 µM | EC50 [3] 2.39 µM | EC50 [4] 3.73 µM | IC50 [5] 2.17 µM | EC50 [6] 3.53 µM | CC50 [11] 2.44 µM | EC50 [12] 20.7 µM | EC50 [14] 4.96 µM | AC50 [15] 23.9 µM | EC50 [16] 510 nM | EC50 [17] 9.19 µM | AC50 [18] 7.86 µM

O=C(Nc1ccc(Oc2ccc(C(=O)O)c(C(=O)O)c2)cc1)c1cccs1
active: IC50 [19] 30.7 µM | IC50 [20] 97.3 µM

O=C(Nc1ccc(Cl)c(Cl)c1)N[C@@H]1CC[C@@H](CCn2cc(C3CCCCC3)nn2)O[C@@H]1CO
active: AC50 [21] 46.9 µM | AC50 [22] 538 nM | AC50 [23] 57.9 µM | AC50 [24] 12.4 µM | AC50 [25] 17.8 µM
